Reference: patent US12215106B2, “Pharmaceutical compounds and therapeutic methods” (RUTGERS, THE STATE UNIVERSITY OF NEW JERSEY, priority 2018, dated 2025)
Where a name gives a salt, the structure may show the parent alone.

Columns and labels:
BMI1 = assay: Western blotting of BMI1 protein levels in GBM spheres; format: cell-based, human; settings: for BMI1 levels: GBM spheres, 72 hours, Western blotting
Method: Different GBM cells were treated with DMSO or different concentrations of test compounds for 72 hours. Cells were lysed in Cell Lysis Buffer (Cell Signaling, #9803) supplemented with Protease Inhibitor Cocktail (Sigma, #P8340), spun down for 30 minutes at 4° C., after which the supernatant was collected at every time point indicated. Western blotting analysis was performed on all samples as described above. BMI1 loss started at 6-12 hours, coinciding with an upper shift and hyper-phosphorylation of BMI1 at 12-24 hours and complete depletion at 72 hours.
GBM cells were treated with DMSO or different concentrations of the test compounds for 72 hours. Cells were lysed in Cell Lysis Buffer (Cell Signaling, #9803) supplemented with Protease Inhibitor Cocktail (Sigma, #P8340), sonicated briefly while on ice and spun down for 30 minutes at 4° C., after which the supernatant was collected. For each sample, 2 uL of lysate was mixed well into 198 uL de-ionized water. Next, 10 uL of this diluted sample was added to a well in a 96 well plate in quadruplets and mixed with Protein Assay Dye Reagent Concentrate (Bio-Rad, #500-0006) (which was diluted 1:5 with water). BSA standards of 25 ng, 50 ng, 100 ng, 200 ng and 250 ng were also used to the plate and mixed with the reagent. The plate was read in a plate reader at 600 nm and samples were calibrated to the standards to determine the concentration of protein. Using the NuPAGE system (Invitrogen), 25 ug of protein was mixed with NuPAGE LDS 4× Sample Buffer (#NP0007), NuPAGE 10× Reducing Agent (#NP0004) and water, mixed well and heated at 96° C. for 15 minutes to denature the protein. The samples were then loaded into 4-12% Bis-Tris gels (Novex (Invitrogen), #0323) with a protein ladder (Novex (Invitrogen) Sharp Pre-stained protein ladder, #57318) and run at 100-120V for about 2 hours with NuPAGE 20×SDS MES Running Buffer (#NP0002) diluted with water. Next, the gel was taken out and loaded into a NuPAGE transfer cassette with a polyvinylidene membrane with NuPAGE 20× Transfer Buffer (#NP0006-1) diluted with water and methanol. Proteins were transferred for 1 hour at 30V at room temperature. Blocking was performed using the Millipore SNAP i.d. Protein Detection system in 0.25% non-fat dry milk in 0.1% Tween in PBS (PBST). […] Protein signals were detected using ECL Western Blotting Substrate (Pierce, #32106) and filmed.
BMI1 levels in GBM spheres were then analyzed by Western Blotting over a time-course of 120 hours upon treatment with compound 14 at 7-10 nM conc. […]

phospho-RB = assay: Western blotting of phospho-RB levels in GBM spheres; format: cell-based, human; settings: for phospho-RB (pRB) levels: GBM spheres, 72 hours, Western blotting
Method: Cells were lysed in Cell Lysis Buffer (Cell Signaling, #9803) supplemented with Protease Inhibitor Cocktail (Sigma, #P8340), sonicated briefly while on ice and spun down for 30 minutes at 4° C., after which the supernatant was collected. For each sample, 2 uL of lysate was mixed well into 198 uL de-ionized water. Next, 10 uL of this diluted sample was added to a well in a 96 well plate in quadruplets and mixed with Protein Assay Dye Reagent Concentrate (Bio-Rad, #500-0006) (which was diluted 1:5 with water). BSA standards of 25 ng, 50 ng, 100 ng, 200 ng and 250 ng were also used to the plate and mixed with the reagent. The plate was read in a plate reader at 600 nm and samples were calibrated to the standards to determine the concentration of protein. Using the NuPAGE system (Invitrogen), 25 ug of protein was mixed with NuPAGE LDS 4× Sample Buffer (#NP0007), NuPAGE 10× Reducing Agent (#NP0004) and water, mixed well and heated at 96° C. for 15 minutes to denature the protein. The samples were then loaded into 4-12% Bis-Tris gels (Novex (Invitrogen), #0323) with a protein ladder (Novex (Invitrogen) Sharp Pre-stained protein ladder, #57318) and run at 100-120V for about 2 hours with NuPAGE 20×SDS MES Running Buffer (#NP0002) diluted with water. Next, the gel was taken out and loaded into a NuPAGE transfer cassette with a polyvinylidene membrane with NuPAGE 20× Transfer Buffer (#NP0006-1) diluted with water and methanol. Proteins were transferred for 1 hour at 30V at room temperature. Blocking was performed using the Millipore SNAP i.d. Protein Detection system in 0.25% non-fat dry milk in 0.1% Tween in PBS (PBST). Primary antibodies against BMI1 (Cell Signaling, #6964), mouse monoclonal antiphospho-RB, anti-CDK4, anti-STAT1, anti-PD-L1 (1:1,000) (Millipore), and housekeeping control rabbit polyclonal anti-vinculin (1:1000) (Cell Signaling) were incubated overnight with gentle rocking at 4° C. in the blocking solution. The following day, membranes were washed 3 times with PBST in the SNAP i.d. system before being incubated with secondary antibody in blocking buffer for 1 hour at room temperature. Three washes were then performed in the SNAP i.d. system. Protein signals were detected using ECL Western Blotting Substrate (Pierce, #32106) and filmed.
GBM CSCs are known to be quiescent and therefore resistant to standard chemo/radiotherapy. The retinoblastoma (Rb) tumor suppressor protein regulates cell proliferation by controlling progression through the restriction point within the G1-phase of the cell cycle. Cell cycle-dependent phosphorylation for Ser780 by cyclin D1-CDK4/6 inhibits Rb target binding and allows cell cycle progression.

Structure (SMILES) | BMI1 protein levels, time-course (BMI1; 7-10 nM, single treatment, time-course of 120 hours) | BMI1 levels (BMI1) | phospho-RB levels, time-course (phospho-RB; 7-10 nM, time-course of 120 hours) | phospho-RB (pRB) levels (phospho-RB)
COc1c(F)cc(Nc2nc(-c3c(C)nc4ccccn34)cs2)cc1F [Compound 14, hydrochloride] | reduction in BMI1 protein levels at 72, 96 and 120 hours | Lowered BMI1 levels | downregulation of phospho-RB levels | lowered pRB
[2H]C([2H])([2H])Oc1ccc(Nc2nc(-c3c(C)nc4ccccn34)cs2)cc1 [Compound 15, N-(4-(methoxy-d3)phenyl)-4-(2-methylimidazo[1,2-c]pyridin-3-yl)thiazol-2-amine hydrochloride] |  | slightly lowered BMI1 levels |  | lowered pRB
[2H]C1([2H])Oc2ccc(Nc3nc(-c4c(C)nc5ccccn45)cs3)cc2O1 [Compound 17, N-(benzo[d][1,3]dioxol-5-yl-2,2-d2)-4-(2-methylimidazo[1,2-c]pyridin-3-yl)thiazol-2-amine hydrochloride] |  | Lowered BMI1 levels |  | lowered pRB
